“Also recorded” adds a separate entry of the source.
What was measured:
UUO kidney [1] = assay: Dynamic MRI measurement of the enhancement in the kidney, UUO mice (Example 3); assay type: in vivo; settings: DOTAREM 10 mM, Example 1 nanoparticles 5 mM
Method: The images were acquired with a 7T 300 MHz spectrometer imager, equipped with a linear 1H radiofrequency coil dedicated to mice (Bruker, Karlsruhe, Germany).
The dynamic MRI studies of capture and release of the nanoparticles in the tissues were carried out in vivo and made it possible to determine the change in enhancement in the kidney.
All the manipulations of the animals were carried out in compliance with the institutional animal protocol guidelines in place at Paris Descartes University, submission CEEA34.JS.142.1 and approved by the Institute's animal research committee, and also the ethics protocols of the company regarding mouse inductions. […]
8-week-old female mice of BalbC/JRJ type (n=6) were UUO-treated at just one kidney, i.e. each mouse comprises one lesioned kidney (UUO kidney) and one healthy kidney (reference kidney). […] The physiological respiratory parameters were measured throughout the MRI studies using a nonmagnetic respiratory sensor system (the company SAM, US) and the body temperature was maintained by heating the cradle to the core. […]
A dynamic contrast enhanced DCE sequence was recorded using a specific sequence eliminating the free artefacts of movement in post treatment with a TR of 100 ms and a TE of 4 ms and a tilt angle of 80° in order to ensure T1 MRI weighting; a field of view (FOV) of 3 cm×3 cm and a final matrix of 256 by 256 points. […]

UUO kidney [2] = assay: High temporal resolution DCE perfusion MRI, UUO model (Example 4); assay type: in vivo, female BalbC/JRJ mice; settings: DOTAREM 10 mM
Method: It provides kinetic profiles of signal enhancement corresponding to the immediate arrival of the imaging agent in the tissue, in particular for probing the first glomerular pass.
The UUO model is induced by clamping the right ureter of female BalbC/JRJ mice according to a biochemically characterized protocol from the literature. All the manipulations of the animals were carried out in compliance with the institutional animal protocol guidelines described in Example 3.
8-week-old female mice of BalbC/JRJ type (n=6) were UUO-treated at the level of just one kidney, i.e. each mouse comprises one lesioned kidney (UUO kidney) and one healthy kidney (reference kidney). A batch of sham mice makes it possible to verify the validity of the contralateral reference with the MRI method developed. 2 batches of n=6 mice and n=6 shams were studied by dynamic MRI 3 days after induction.
The DCE MRI acquisition protocol consists in injecting the two types of imaging agents: reference DOTAREM and AGuIX, namely:
Solution according to the invention: 100 μl of imaging agent dissolved in a 0.9% saline solution, with a 5 mM concentration of AGuIX imaging agent.
Prior art solution: 100 μl of imaging agent dissolved in a 0.9% saline solution with 10 mM concentration of DOTAREM imaging agent. • i) The administration protocol is that of Example 3. • ii) The MRI acquisition protocol itself consists in recording sequential images by means of the T1-weighted FLASH MRI sequence (TR=TE=2.2 ms, spatial resolution 117×310 μm^2), temporal resolution 2.5 s for 10 min with 20 s of precontrast. […] T1 mapping in order to verify the concentration of Gd MRI agent is recorded. • iii) The digital processing method derived from method termed 3TP, three time Points, consists in defining 3 main points: basic reference intensity, point of maximum intensity of enhancement, final clearance time, and calculating the slopes of capture and of release of the agent. Next, a Mann-Whitney biostatistical study is applied to the slope parameters calculated for each of the 6 mice, and for each imaging agent.
Averaged collective method resulting in the value of T1max: • a) Searching for the time T corresponding to the maximum in the overall mean of the DCE MRI intensities. • b) Applying this max to each enhancement profile as Tmax. • c) Taking the mean of 6 enhancement values around the indexed value.

[3] = test system: glomerular and tubular renal disorder model induced by injection of anti-gbm antibodies; assay: Arterial input function (AIF) by DCE MRI in anti-gbm glomerular and tubular renal disorder model with therapy (Example 6); assay type: in vivo, male CBA mice; settings: d7 and d14 post-induction, AGuIX 5 mM, DOTAREM 10 mM, 100 μl bolus
Method: The high temporal resolution DCE perfusion method with a period 2.5 s for 10 min, with injection of the imaging agent as a 100 μl bolus at […] (method described in Example 4) was applied on another model of glomerular and tubular renal disorder, i.e. model induced by injection of anti-gbm antibodies in the literature.
The DCE MRI acquisition protocol consists in injecting the two types of agents: reference DOTAREM or AGuIX, namely:
solution according to the invention: 100 μl of imaging agent dissolved in a 0.9% saline solution, with a 5 mM concentration of AguIX imaging agent, and
solution according to the prior art: 100 μl of imaging agent dissolved in a 0.9% saline solution, with a 10 mM concentration of DOTAREM imaging agent. […]
An additional parameter corresponding to the arrival of the imaging tracer in the organ, i.e. arterial input function AIF, was also recorded. Measured at the input of the organ studied, the AIF itself at the input of the kidney is an indicator of the functionality. The profile is recorded on the anatomical MRI image at the level of the renal arterial point on the dynamic images acquired at DCE high temporal resolution proposed. […]

CNC[C@H](O)[C@@H](O)[C@H](O)[C@H](O)CO.O=C([O-])CN1CCN(CC(=O)[O-])CCN(CC(=O)O)CCN(CC(=O)[O-])CC1.[Gd+3] [DOTAREM]
discrimination between healthy kidney and lesioned (UUO) kidney by MRI enhancement (UUO kidney [1]; intravenous, 100 μl, UUO mice): cannot discriminate between a healthy kidney and a lesioned kidney; also recorded: does not make it possible to significantly differentiate renal functionality of a healthy kidney and of an obstructed kidney; also recorded: does not make it possible to distinguish a healthy kidney from a kidney suffering from a renal disorder
enhancement profile in the renal cortex, UUO kidney vs reference kidney (UUO kidney [1]; time course by MRI after intravenous administration): enhancement profile is similar between UUO kidney (lesioned kidney) and reference kidney (healthy kidney)
decrease of DCE MRI signal between healthy and pathological kidney condition (UUO kidney [2]; UUO model, AGuIX 5 mM): 100%
decrease of DCE MRI signal between healthy and pathological kidney condition, as factor (UUO kidney [2]; UUO model, AGuIX 5 mM): 2
discrimination between healthy kidney and lesioned kidney (high time resolution DCE MRI) (UUO kidney [2]; intravenous, Example 1 nanoparticles 5 mM): cannot discriminate between a healthy kidney and a lesioned kidney
enhancement profile in the renal cortex, UUO kidney vs reference kidney (high time resolution DCE MRI, Mann-Whitney improved 3TP) (UUO kidney [2]; intravenous, Example 1 nanoparticles 5 mM, 3 days after induction): enhancement profile is similar between UUO kidney (lesioned kidney) and reference kidney (healthy kidney)
AIF at the kidney input, control (carrier) mice vs MP mice [3]: identical
